{"source": "patent US20260365684A1", "about": "“PHYTOSPHINGOSINE-3,4-CYCLICPHOSPHATE COMPOUND AND PHARMACEUTICAL COMPOSITION COMPRISING THE SAME” (AXCESO BIOPHARMA CO., LTD., priority 2022, published 2026)", "key": {"[1]": {"test_system": "APP/PS/Tau transgenic mice", "assay": "Intestinal length in an AD-induced animal model (APP/PS/Tau transgenic mice)", "format": "in vivo, mouse", "conditions": "1 mg/kg i.p. once every 3 days for 2 weeks, FIG. 2", "protocol": "In neurodegenerative diseases (AD and PD), the length of the intestine tends to decrease as the disease progresses, so we looked for changes in intestinal length in an AD-induced animal model.\nAPP/PS/Tau transgenic mice were used as an AD-induced animal model. The compound of formula (1a-1) was administered intraperitoneally once every 3 days at a concentration of 1 mg/kg to 12-week-old transgenic mice for 2 weeks, and the changes in intestinal length of the mice were measured after 1 and 4 weeks."}, "Tau protein": {"test_system": "Tau protein", "assay": "Expression of Tau in brain of AD-induced animal model by fluorescence microscopy", "format": "in vivo", "conditions": "mouse brain, 1 mg/kg i.p. once every 3 days for 2 weeks, FIG. 3", "protocol": "To determine the therapeutic effect on Alzheimer's Disease (AD), the effects on amyloid beta monomer (monomeric Aβ, mAβ) and Tau protein, which are biomarkers of AD, were analyzed in an AD-induced animal model.\nAPP/PS/Tau transgenic mice were used as an AD-induced animal model. The compound of formula (1a-1) was administered intraperitoneally once every 3 days at a concentration of 1 mg/kg to 12-week-old transgenic mice for 2 weeks, and the expression of mAβ and Tau proteins in the mouse brain was measured after 1 and 4 weeks. After anesthetizing the mouse, the cervical region was incised with a dissecting tool, and then the occipital region was incised to remove both sides of the skull. The brain was washed with phosphate buffered saline (PBS) and fixed with 4% paraformaldehyde (Sigma, St Louis, MO, USA) for 12 hours at 4 °C. These were cut to a thickness of approximately 10 μm using a vibratome, and hippocampus and cortex sections were collected and placed in 24 wells. PBS was added to the wells containing the fixed tissue sections, and fluorescent nanoparticles (QD565, red fluorescence) conjugated with anti-amyloid antibodies and anti-Tau antibodies (Santa Cruz, USA) were added to each 2 μM, and reacted at 4 °C for 12 hours. The expression of mAβ and Tau was confirmed by fluorescence microscopy."}, "pluripotent stem cells": {"test_system": "pluripotent stem cells", "assay": "Differentiation of pluripotent stem cells into dopaminergic neurons", "format": "cell-based", "conditions": "FIG. 5", "protocol": "Pluripotent stem cells were seeded in Aggre Well plates (stemcell) at 5,000 cells/microwell and cultured for 5 days in E6 medium (GIBCO) to induce embryonic body (EB) formation. For neural rosette formation, EBs were seeded into 35 mm dishes in groups of 30 and cultured for 10 days in N2bF medium. The 35 mm dishes were used after being coated with 15 μg/ml of poly-L-ornithine (sigma) and 1 μg/ml of fibronectin (sigma). The N2Bf medium composition was DMEM/F12 (GIBCO), N2 supplement (stemcell) 1×, 10% NEAA (GIBCO), 55 µM beta-Mercaptoethanol (GIBCO), bFGF (peprotech) 20 ng/ml. For the formation of spherical neural masses (SNMs), rosette masses were sliced and cultured in petri dishes with N2bF medium. SNMs were no larger than 500 UM in size and were sliced and cultured for 3 to 4 passages. After subculture of SNM, the clumps were broken into small pieces using a tungsten mesh (Nilaco) for the neural progenitor cell (NPC) culture step, and then attached to a PLO/FN-coated dish and cultured in N2bF medium. […]\nThe effect of the compound of formula (1a-1) on differentiation into neurons was evaluated by comparing the expression of tyrosine hydroxylase (TH) and dopamine transporter (DAT) depending on the presence or absence of treatment with the compound of formula (1a-1)."}, "[2]": {"test_system": "tyrosine hydroxylase (TH)", "assay": "Tyrosine hydroxylase expression in differentiated SH-SY5Y dopaminergic neurons by western blot", "format": "cell-based, human", "conditions": "FIG. 6", "protocol": "(§1) To analyze the effect on the expression of tyrosine hydroxylase (TH) and α-synuclein as neuron-specific proteins, western blot was performed.\n(§2) SH-SY5Y cell line was treated with retinoic acid and 12-O-tetradecanoylphorbol-13-acetate (TPA) to induce differentiation into TH-secreting neurons for 6 days.\n(§3) Differentiated dopaminergic neurons were lysed in PRO-PREP (Intronbio), a cell lysis solution containing protease inhibitor cocktail (Gendepot), and electrophoresed in 10% SDS polyacrylamide gels at 20 μg/well. Transfer was performed using PVDF (Merck millipore) as a membrane, and tyrosine hydroxylase antibody, «-synuclein antibody (Cell signaling), and β-actin antibody (Santa Cruz) were used for reaction for more than 2 hours. Protein expression was detected by staining with ECL substrate (Biorad) for development and graphed using the image J program."}, "α-synuclein": {"test_system": "α-synuclein", "assay": "α-synuclein expression in differentiated SH-SY5Y dopaminergic neurons by western blot", "format": "cell-based, human", "conditions": "FIG. 6", "protocol": "as §1, §2, §3"}, "[3]": {"conditions": "differentiated dopaminergic neurons treated with rotenone (RT)"}, "[4]": {"conditions": "rotenone-treated differentiated dopaminergic neurons"}}}
{"smiles": "CCCCCCCCCCCCCC[C@H]1OP(=O)(O)O[C@H]1[C@@H](N)CO.Cl", "note": "[formula (1a-1), (4S,5R)-4-((S)-1-amino-2-hydroxyethyl)-2-hydroxy-5-tetradecyl-1,3,2-dioxaphosphoran-2-oxide hydrochloride]", "values": [{"measurement": "intestinal length at 4 weeks (6W) vs 1 week (3W) after administration", "setting": "[1]", "value": "the length of the intestine at 4 weeks is longer compared to the length of the intestine at 1 week"}, {"measurement": "intestinal length vs control group", "setting": "[1]; untreated AD-induced mice as control", "value": "the intestinal length is increased"}, {"measurement": "red fluorescence for Tau", "setting": "Tau protein; 1 week and 4 weeks after", "value": "negligible red fluorescence for mAβ and Tau"}, {"measurement": "expression of Tau protein", "setting": "Tau protein", "value": "significantly reduced"}, {"measurement": "differentiation of pluripotent stem cells into dopaminergic neurons", "setting": "pluripotent stem cells", "value": "can promote the differentiation of pluripotent stem cells into dopaminergic neurons"}, {"measurement": "expression of TH", "setting": "[2]; [3]", "value": "the expression of TH decreased by rotenone was restored"}, {"measurement": "effectiveness relative to resveratrol (control drug), TH expression", "setting": "[2]; [4]", "value": "more effective than resveratrol"}, {"measurement": "expression of α-synuclein", "setting": "α-synuclein; [3]", "value": "the expression of α-synuclein increased by rotenone was decreased"}, {"measurement": "effectiveness relative to resveratrol (control drug), α-synuclein expression", "setting": "α-synuclein; [4]", "value": "more effective than resveratrol"}]}
